Where “and” joins values, the source holds several entries; their conditions need not be identical. Equal values may be shown once.
Key:
H-460 [1] = test: 3H-TdR (3H-thymidine) incorporation assay at 72 hr; type: cell-based, Human; settings: Homo sapiens, NCI-H460, read-out: IC50 H-460 24 h, 24 h drug exposure, wash, another 48 hr; 3H-TdR incorporation at 72 hr
SF-268 [2] = test: 3H-TdR (3H-thymidine) incorporation assay at 72 hr; type: cell-based, Human; settings: Homo sapiens, SF-268, read-out: IC50 SF-268 24 h, 24 h drug exposure, wash, another 48 hr; 3H-TdR incorporation at 72 hr
MCF-7 [3] = test: 3H-TdR (3H-thymidine) incorporation assay at 72 hr; type: cell-based, Human; settings: Homo sapiens, MCF7, read-out: IC50 MCF-7 24 h, 24 h drug exposure, wash, another 48 hr; 3H-TdR incorporation at 72 hr
CEM/dCK- [4] = test: 3H-TdR (3H-thymidine) incorporation assay at 72 hr; type: cell-based; settings: for IC50: Homo sapiens, CCRF-CEM, read-out: IC50 CEM/dCK- 24 h, 24 h drug exposure, wash, another 48 hr, deoxycytidine kinase-deficient CCRF-CEM; for Factor* (Resistance Factor = Ratio of dCK- on Wild-type CCRF-CEM): ratio of IC50 CEM/dCK- to CCRF-CEM, 24 h
Description: (§1) Table of IC50 Values (μM) for Controls
(§2) Exposition of 24 hr to drug, wash, incubated for another 48 hr (total of 72 hr assay)
(§3) (3H-Thymidine Incorporation Assay)

CCRF-CEM [5] = test: 3H-TdR (3H-thymidine) incorporation assay at 72 hr; type: cell-based; settings: Homo sapiens, CCRF-CEM, read-out: IC50 CCRF-CEM 24 h, 24 h drug exposure, wash, another 48 hr; 3H-TdR incorporation at 72 hr
Description: as §1, §2, §3

CEM/dCK- [6] = test: 3H-TdR incorporation at 72 hr (24 hr drug exposure, wash, 48 hr); type: cell-based; settings: for Factor* (Resistance Factor = Ratio of dCK- on Wild-type CCRF-CEM): ratio of IC50 CEM/dCK- to IC50 CCRF-CEM
Description: as §2, §3

CCRF-CEM [7] = test: as above; type: cell-based; settings: read-out: IC50 in μM (3H-TdR incorporation at 72 hr) CCRF-CEM 24 h, CCRF-CEM T-cell Leukemia, 72 hr assay
Description: as §2, §3

H-460 [8] = test: as above; type: cell-based, Human
Description: as §2, §3

MCF-7 [9] = test: as above; type: cell-based, Human
Description: as §2, §3

SF-268 [10] = test: as above; type: cell-based, Human; settings: Homo sapiens, SF-268, read-out: IC50 in μM (3H-TdR incorporation at 72 hr) SF-268 24 h, SF-268 Human Central Nervous System Tumor; 24 h drug exposure, 72 hr assay
Description: as §2, §3

[11] = Homo sapiens, NCI-H460, read-out: IC50 in μM (3H-TdR incorporation at 72 hr) H-460 24 h, H-460 Human Lung Carcinoma, 72 hr assay
[12] = read-out: IC50 in μM (3H-TdR incorporation at 72 hr) H-460 24 h, H-460 Human Lung Carcinoma, 72 hr assay
[13] = Homo sapiens, MCF7, read-out: IC50 in μM (3H-TdR incorporation at 72 hr) MCF-7 24 h, MCF-7 Human Breast Carcinoma, 72 hr assay
[14] = read-out: IC50 in μM (3H-TdR incorporation at 72 hr) MCF-7 24 h, MCF-7 Human Breast Carcinoma, 72 hr assay

SMILES | IC50 (H-460 [1]) | IC50 (SF-268 [2]) | IC50 (MCF-7 [3]) | IC50 (CEM/dCK- [4]) | IC50 (CCRF-CEM [5]) | IC50 (CCRF-CEM [7]) | Factor* (Resistance Factor = Ratio of dCK- on Wild-type CCRF-CEM) (CEM/dCK- [4]) | IC50 (H-460 [8]; [12]) | further results
O=C(Nc1ccn([C@@H]2CO[C@H](COC(=O)OCCCCCl)O2)c(=O)n1)OCCCCCl [Compound 159, CARBONIC ACID 4-[4-(4- CHLORO- BUTOXYCARBONYLAMINO)-2- OXO-2H-PYRIMIDIN-1-YL]- [1,3]DIOXOLAN-2- YLMETHYL ESTER 4- CHLORO-BUTYL ESTER] | 0.87 µM | 1.6 µM | 0.72 µM | > 100 µM | 0.38 µM |  | >263 |  | 
Nc1ccn([C@@H]2CO[C@H](COC(=O)c3ccc(Cl)c(Cl)c3)O2)c(=O)n1 [Compound 187, 3,4-DICHLORO-BENZOIC ACID 4-(4-AMINO-2-OXO- 2H-PYRIMIDIN-1-YL)- [1,3]DIOXOLAN-2-YL METHYL ESTER] |  |  |  |  |  | 0.0017 µM |  | 0.0014 µM | IC50 (MCF-7 [9]; [14]): 0.0042 µM
Nc1ccn([C@@H]2CO[C@H](COC(=O)c3ccc(C(F)(F)F)cc3)O2)c(=O)n1 [Compound 189, 4-TRIFLUOROMETHYL- BENZOIC ACID 4-(4- AMINO-2-OXO-2H- PYRIMIDIN-1-YL)- [1,3]DIOXOLAN-2-YL METHYL ESTER] |  |  |  |  |  |  |  | 0.0012 µM | Factor* (Resistance Factor = Ratio of dCK- on Wild-type CCRF-CEM) (CEM/dCK- [6]): 1333 and 1300
CC(=O)Oc1ccc(COC(=O)Nc2ccn([C@@H]3CO[C@H](CO)O3)c(=O)n2)cc1 [Compound 203, ACETIC ACID 4-[1-(2- HYDROXYMETHYL- [1,3]DIOXOLAN-4-YL)-2- OXO-1,2-DIHYDRO- PYRIMIDIN-4- YLCARBAMOYLOXYMETHYL]- PHENYL ESTER] |  |  |  |  |  |  |  |  | IC50 (H-460 [8]; [11]): < 0.0001 µM; IC50 (SF-268 [10]): < 0.0001 µM; IC50 (MCF-7 [9]; [13]): < 0.0001 µM
Nc1ccn([C@@H]2CO[C@H](COC(=O)c3ccc([N+](=O)[O-])cc3)O2)c(=O)n1 [Compound 204, 4-NITRO-BENZOIC ACID 4- (4-AMINO-2-OXO-2H- PYRIMIDIN-1-YL)- [1,3]DIOXOLAN-2-YL METHYL ESTER] |  |  |  |  |  |  |  | 0.015 µM | Factor* (Resistance Factor = Ratio of dCK- on Wild-type CCRF-CEM) (CEM/dCK- [6]): 1600

More lines, main results first:

IC50 (H-460 [1]) | IC50 (SF-268 [2]) | IC50 (MCF-7 [3]) | IC50 (CEM/dCK- [4]) | IC50 (CCRF-CEM [5]) | IC50 (CCRF-CEM [7]) | SMILES | Factor* (Resistance Factor = Ratio of dCK- on Wild-type CCRF-CEM) (CEM/dCK- [4]) | IC50 (H-460 [8]; [12]) | further results
0.024 µM | 2.2 µM | 0.55 µM | > 100 µM | 0.012 µM |  | CC(C(=O)OC[C@H]1OC[C@@H](n2ccc(N)nc2=O)O1)C(c1ccccc1)c1ccccc1 (stereo partly drawn) [Compound 157, (2S,4S)-(3″-DIPHENYL- 2″- METHYLPROPIOXYMETHYL)- 4-CYTOSIN-1′-YL-1,3- DIOXOLANE] | >8333 |  | 
0.92 µM | 1.2 µM | 0.36 µM | > 100 µM | 0.36 µM |  | O=C(Nc1ccn([C@@H]2CO[C@H](CO)O2)c(=O)n1)OCCCCCl [Compound 160, [1-(2-HYDROXYMETHYL- [1,3]DIOXOLAN-4-YL)-2- OXO-1,2-DIHYDRO- PYRIMIDIN-4-YL]- CARBAMIC ACID 4-CHLORO- BUTYL ESTER] | >278 |  | 
 |  |  |  |  | 22 µM and 20 µM | O=c1nc(NS(=O)(=O)c2ccc([N+](=O)[O-])cc2)ccn1[C@@H]1CO[C@H](CO)O1 [Compound 168, N-[1-(2-HYDROXYMETHYL- [1,3]DIOXOLAN-4-YL)-2- OXO-1,2-DIHYDRO- PYRIMIDIN-4-YL]-4- NITRO- BENZENESULFONAMIDE] |  |  | IC50 (CEM/dCK- [6]; Homo sapiens, CCRF-CEM, read-out: IC50 in μM (3H-TdR incorporation at 72 hr) CEM/dCK- 24 h, CCRF-CEM deoxycytidine kinase-deficient, 24 h drug exposure, 72 hr assay): > 100 µM; IC50 (CCRF-CEM [7]; Homo sapiens, CCRF-CEM): 31 µM
 |  |  |  |  | 0.0085 µM | O=c1nc(NCNc2ccccc2)ccn1[C@@H]1CO[C@H](CO)O1 [Compound 172, 1-(2-HYDROXYMETHYL- [1,3]DIOXOLAN-4-YL)-4- (PHENYLAMINOMETHYL- AMINO)-1H-PYRIMIDIN-2- ONE] |  | 0.015 µM | IC50 (H-460 [8]; [11]): 0.014 µM; IC50 (MCF-7 [9]; [13]): 0.019 µM; IC50 (MCF-7 [9]; [14]): 0.036 µM; IC50 (CCRF-CEM [7]; Homo sapiens, CCRF-CEM): 0.0074 µM
